Measured values published in ChEMBL document CHEMBL1909046, “DrugMatrix in vitro pharmacology data”.

target: D(1A) dopamine receptor (Homo sapiens, UniProt P21728); test: DRUGMATRIX: Dopamine D1 radioligand binding (ligand: [3H] SCH-23390); type: cell membranes, CHO, Membrane; settings: cho; Not Active = under 50% inhibition at 10 µM
Sequence (P21728 whole entry): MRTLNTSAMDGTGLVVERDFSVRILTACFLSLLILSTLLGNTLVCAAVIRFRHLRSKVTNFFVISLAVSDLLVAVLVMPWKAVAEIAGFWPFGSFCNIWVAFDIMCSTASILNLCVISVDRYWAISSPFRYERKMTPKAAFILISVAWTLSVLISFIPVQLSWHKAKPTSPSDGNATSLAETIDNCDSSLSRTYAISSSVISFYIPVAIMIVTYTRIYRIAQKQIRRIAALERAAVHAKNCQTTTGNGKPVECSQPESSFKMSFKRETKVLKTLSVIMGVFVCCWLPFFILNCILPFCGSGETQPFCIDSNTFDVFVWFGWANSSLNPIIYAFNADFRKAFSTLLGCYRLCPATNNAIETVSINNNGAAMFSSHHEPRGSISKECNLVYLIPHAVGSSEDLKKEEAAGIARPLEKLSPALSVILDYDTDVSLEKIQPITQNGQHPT

Structure (SMILES) | IC50
CC(=O)OCC(=O)[C@@]12OC(C)(C)O[C@@H]1C[C@H]1[C@@H]3C[C@H](F)C4=CC(=O)C=C[C@]4(C)[C@@]3(F)[C@@H](O)C[C@@]12C [FLUOCINONIDE] | Not Active
O=C(O)P(=O)(O)O [FOSCARNET] | Not Active
Cc1ccc(C)c(OCCCC(C)(C)C(=O)O)c1 [GEMFIBROZIL] | Not Active
O=c1c(-c2ccc(O)cc2)coc2cc(O)cc(O)c12 [GENISTEIN] | Not Active
CCC1=C(C)CN(C(=O)NCCc2ccc(S(=O)(=O)NC(=O)N[C@H]3CC[C@H](C)CC3)cc2)C1=O [GLIMEPIRIDE] | Not Active
Nc1cc(-c2ccncc2)c[nH]c1=O [INAMRINONE] | Not Active
CCCCC1=NC2(CCCC2)C(=O)N1Cc1ccc(-c2ccccc2-c2nnn[nH]2)cc1 [IRBESARTAN] | Not Active

target: Tyrosine-protein kinase Lck (Homo sapiens, UniProt P06239); test: DRUGMATRIX: Protein Tyrosine Kinase, LCK enzyme inhibition (substrate: Poly(Glu:Tyr)); type: cell-based, Insect cells; settings: insect cells; Not Active = under 50% inhibition at 10 µM
Sequence (P06239 whole entry): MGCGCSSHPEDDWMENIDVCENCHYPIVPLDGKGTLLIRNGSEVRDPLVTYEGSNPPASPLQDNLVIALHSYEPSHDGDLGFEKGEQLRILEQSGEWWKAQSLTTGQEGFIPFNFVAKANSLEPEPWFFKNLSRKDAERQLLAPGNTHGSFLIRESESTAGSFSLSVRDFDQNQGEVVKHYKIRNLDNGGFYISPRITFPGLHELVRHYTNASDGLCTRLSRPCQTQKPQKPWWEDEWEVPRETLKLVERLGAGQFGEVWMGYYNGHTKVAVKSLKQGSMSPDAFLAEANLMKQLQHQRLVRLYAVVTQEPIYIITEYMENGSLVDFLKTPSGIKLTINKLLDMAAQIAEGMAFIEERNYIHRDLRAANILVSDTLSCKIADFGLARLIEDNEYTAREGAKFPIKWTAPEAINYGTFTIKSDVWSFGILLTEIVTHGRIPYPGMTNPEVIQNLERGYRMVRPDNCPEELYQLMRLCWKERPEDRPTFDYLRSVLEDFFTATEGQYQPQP

Structure (SMILES) | IC50
CC(=O)OCC(=O)[C@@]12OC(C)(C)O[C@@H]1C[C@H]1[C@@H]3C[C@H](F)C4=CC(=O)C=C[C@]4(C)[C@@]3(F)[C@@H](O)C[C@@]12C [FLUOCINONIDE] | Not Active
O=C(O)P(=O)(O)O [FOSCARNET] | Not Active
Cc1ccc(C)c(OCCCC(C)(C)C(=O)O)c1 [GEMFIBROZIL] | Not Active
O=c1c(-c2ccc(O)cc2)coc2cc(O)cc(O)c12 [GENISTEIN] | Not Active
CCC1=C(C)CN(C(=O)NCCc2ccc(S(=O)(=O)NC(=O)N[C@H]3CC[C@H](C)CC3)cc2)C1=O [GLIMEPIRIDE] | Not Active
Nc1cc(-c2ccncc2)c[nH]c1=O [INAMRINONE] | Not Active
CCCCC1=NC2(CCCC2)C(=O)N1Cc1ccc(-c2ccccc2-c2nnn[nH]2)cc1 [IRBESARTAN] | Not Active

target: Acetylcholinesterase (Homo sapiens, UniProt P22303); test: DRUGMATRIX: Acetylcholinesterase enzyme inhibition (substrate: acetylthiocholine); type: cell-based, HEK293; settings: hek293; Not Active = under 50% inhibition at 10 µM
Sequence (P22303 whole entry): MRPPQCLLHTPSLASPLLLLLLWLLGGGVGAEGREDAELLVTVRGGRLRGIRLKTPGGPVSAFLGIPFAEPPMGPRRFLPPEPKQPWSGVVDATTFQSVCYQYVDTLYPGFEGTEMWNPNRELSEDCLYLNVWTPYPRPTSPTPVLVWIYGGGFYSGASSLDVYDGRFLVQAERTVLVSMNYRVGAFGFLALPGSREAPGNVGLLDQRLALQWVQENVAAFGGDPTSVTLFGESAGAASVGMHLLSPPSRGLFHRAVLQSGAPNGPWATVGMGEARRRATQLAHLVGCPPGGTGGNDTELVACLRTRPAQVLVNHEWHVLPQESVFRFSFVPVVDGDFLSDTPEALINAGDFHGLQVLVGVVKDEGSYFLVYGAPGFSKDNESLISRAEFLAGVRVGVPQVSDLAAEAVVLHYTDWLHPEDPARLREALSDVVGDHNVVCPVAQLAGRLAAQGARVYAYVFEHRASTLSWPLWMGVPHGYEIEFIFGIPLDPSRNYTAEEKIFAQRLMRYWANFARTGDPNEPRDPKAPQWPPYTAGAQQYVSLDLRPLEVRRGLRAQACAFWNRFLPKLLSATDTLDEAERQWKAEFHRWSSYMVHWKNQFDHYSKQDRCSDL

Structure (SMILES) | IC50
CC(=O)OCC(=O)[C@@]12OC(C)(C)O[C@@H]1C[C@H]1[C@@H]3C[C@H](F)C4=CC(=O)C=C[C@]4(C)[C@@]3(F)[C@@H](O)C[C@@]12C [FLUOCINONIDE] | Not Active
O=C(O)P(=O)(O)O [FOSCARNET] | Not Active
Cc1ccc(C)c(OCCCC(C)(C)C(=O)O)c1 [GEMFIBROZIL] | Not Active
O=c1c(-c2ccc(O)cc2)coc2cc(O)cc(O)c12 [GENISTEIN] | Not Active
CCC1=C(C)CN(C(=O)NCCc2ccc(S(=O)(=O)NC(=O)N[C@H]3CC[C@H](C)CC3)cc2)C1=O [GLIMEPIRIDE] | Not Active
Nc1cc(-c2ccncc2)c[nH]c1=O [INAMRINONE] | Not Active
CCCCC1=NC2(CCCC2)C(=O)N1Cc1ccc(-c2ccccc2-c2nnn[nH]2)cc1 [IRBESARTAN] | Not Active

target: T1, Alpha-2C adrenergic receptor (Homo sapiens, UniProt P18825); test: DRUGMATRIX: Adrenergic Alpha-2C radioligand binding (ligand: [3H] MK-912); type: cell membranes, Sf9, Membrane; settings: sf9
T1 sequence (P18825 whole entry): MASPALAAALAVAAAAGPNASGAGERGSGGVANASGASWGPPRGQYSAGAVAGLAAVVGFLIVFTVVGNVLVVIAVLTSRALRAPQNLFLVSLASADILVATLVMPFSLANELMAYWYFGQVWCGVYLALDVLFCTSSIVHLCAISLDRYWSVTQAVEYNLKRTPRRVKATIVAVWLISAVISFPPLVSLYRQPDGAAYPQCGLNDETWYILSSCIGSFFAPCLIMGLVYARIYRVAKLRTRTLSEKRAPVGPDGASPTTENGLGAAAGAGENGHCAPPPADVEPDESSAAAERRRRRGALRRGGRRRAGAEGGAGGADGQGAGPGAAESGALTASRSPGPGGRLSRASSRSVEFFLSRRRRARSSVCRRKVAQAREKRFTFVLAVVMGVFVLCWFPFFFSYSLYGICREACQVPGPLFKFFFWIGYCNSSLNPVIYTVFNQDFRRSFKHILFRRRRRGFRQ

Structure (SMILES) | IC50
CC(=O)OCC(=O)[C@@]12OC(C)(C)O[C@@H]1C[C@H]1[C@@H]3C[C@H](F)C4=CC(=O)C=C[C@]4(C)[C@@]3(F)[C@@H](O)C[C@@]12C [FLUOCINONIDE] | Not Active
O=C(O)P(=O)(O)O [FOSCARNET] | Not Active
Cc1ccc(C)c(OCCCC(C)(C)C(=O)O)c1 [GEMFIBROZIL] | Not Active
O=c1c(-c2ccc(O)cc2)coc2cc(O)cc(O)c12 [GENISTEIN] | Not Active
CCC1=C(C)CN(C(=O)NCCc2ccc(S(=O)(=O)NC(=O)N[C@H]3CC[C@H](C)CC3)cc2)C1=O [GLIMEPIRIDE] | Not Active
Nc1cc(-c2ccncc2)c[nH]c1=O [INAMRINONE] | Not Active
CCCCC1=NC2(CCCC2)C(=O)N1Cc1ccc(-c2ccccc2-c2nnn[nH]2)cc1 [IRBESARTAN] | Not Active

target: T2, Cathepsin G (Homo sapiens, UniProt P08311); type: tissue-based; settings: neutrophil;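 also: inhibition of Cathepsin G enzyme activity, tested on an AMC-conjugated peptide substrate; in other assays of this panel Not Active means under 50% inhibition at 10 µM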
T2 sequence (P08311 whole entry): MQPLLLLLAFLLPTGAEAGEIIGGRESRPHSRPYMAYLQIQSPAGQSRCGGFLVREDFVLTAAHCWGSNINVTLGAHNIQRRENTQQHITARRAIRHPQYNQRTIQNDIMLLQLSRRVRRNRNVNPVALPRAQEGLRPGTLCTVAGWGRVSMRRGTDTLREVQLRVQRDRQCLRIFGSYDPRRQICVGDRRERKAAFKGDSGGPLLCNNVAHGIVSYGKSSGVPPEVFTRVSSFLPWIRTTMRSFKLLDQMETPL

Structure (SMILES) | IC50
CC(=O)OCC(=O)[C@@]12OC(C)(C)O[C@@H]1C[C@H]1[C@@H]3C[C@H](F)C4=CC(=O)C=C[C@]4(C)[C@@]3(F)[C@@H](O)C[C@@]12C [FLUOCINONIDE] | Not Active
O=C(O)P(=O)(O)O [FOSCARNET] | Not Active
Cc1ccc(C)c(OCCCC(C)(C)C(=O)O)c1 [GEMFIBROZIL] | Not Active
O=c1c(-c2ccc(O)cc2)coc2cc(O)cc(O)c12 [GENISTEIN] | Not Active
CCC1=C(C)CN(C(=O)NCCc2ccc(S(=O)(=O)NC(=O)N[C@H]3CC[C@H](C)CC3)cc2)C1=O [GLIMEPIRIDE] | Not Active
Nc1cc(-c2ccncc2)c[nH]c1=O [INAMRINONE] | Not Active
CCCCC1=NC2(CCCC2)C(=O)N1Cc1ccc(-c2ccccc2-c2nnn[nH]2)cc1 [IRBESARTAN] | Not Active

target: T3, Cholecystokinin receptor type A (Homo sapiens, UniProt P32238); type: cell membranes, Membrane; settings: 1321-n1; also: in other assays of this panel Not Active means under 50% inhibition at 10 µM
T3 sequence (P32238 whole entry): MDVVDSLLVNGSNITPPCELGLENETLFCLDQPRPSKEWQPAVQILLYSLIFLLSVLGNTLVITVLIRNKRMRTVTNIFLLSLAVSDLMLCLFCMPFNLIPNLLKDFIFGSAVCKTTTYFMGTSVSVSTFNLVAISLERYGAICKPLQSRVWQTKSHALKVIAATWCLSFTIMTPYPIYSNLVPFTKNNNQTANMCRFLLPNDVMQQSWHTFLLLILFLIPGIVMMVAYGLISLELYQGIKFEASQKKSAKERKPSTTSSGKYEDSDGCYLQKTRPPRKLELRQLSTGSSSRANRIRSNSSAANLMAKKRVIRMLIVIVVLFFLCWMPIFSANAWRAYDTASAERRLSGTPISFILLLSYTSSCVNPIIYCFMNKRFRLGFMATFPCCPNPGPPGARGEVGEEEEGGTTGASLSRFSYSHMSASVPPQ

Structure (SMILES) | IC50
CC(=O)OCC(=O)[C@@]12OC(C)(C)O[C@@H]1C[C@H]1[C@@H]3C[C@H](F)C4=CC(=O)C=C[C@]4(C)[C@@]3(F)[C@@H](O)C[C@@]12C [FLUOCINONIDE] | Not Active
O=C(O)P(=O)(O)O [FOSCARNET] | Not Active
Cc1ccc(C)c(OCCCC(C)(C)C(=O)O)c1 [GEMFIBROZIL] | Not Active
O=c1c(-c2ccc(O)cc2)coc2cc(O)cc(O)c12 [GENISTEIN] | Not Active
CCC1=C(C)CN(C(=O)NCCc2ccc(S(=O)(=O)NC(=O)N[C@H]3CC[C@H](C)CC3)cc2)C1=O [GLIMEPIRIDE] | Not Active
Nc1cc(-c2ccncc2)c[nH]c1=O [INAMRINONE] | Not Active
CCCCC1=NC2(CCCC2)C(=O)N1Cc1ccc(-c2ccccc2-c2nnn[nH]2)cc1 [IRBESARTAN] | Not Active
